{"source": "patent US9513294B2", "about": "“Megastokes amino-triazolyl-BODIPY compounds and applications to live neuron staining and human serum albumin FA1 drug site probing” (National University of Singapore, priority 2012, dated 2016)"}
{"test": "Absorbance and fluorescence emission spectra (SpectraMax M2)", "type": "physicochemical", "conditions": "MKCA compound library; absorbance maximum", "how_it_was_run": "(§1)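 Spectroscopic data, including quantum yields, were recorded with a SpectraMax M2 instrument and analysed in GraphPrism.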", "units": {"λmax Absorp. (nm)": "nm"}}
{"smiles": "CN(Cc1ccccc1)C1=[N+]2C(=C(c3ccc(NC(=O)CCl)cc3)c3ccc(-n4cc(CO)nn4)n3[B-]2(F)F)C=C1", "note": "[MKCA195-70]", "λmax Absorp. (nm)": 465}
{"smiles": "CCCC(C)c1cn(-c2ccc3n2[B-](F)(F)[N+]2=C(N4CCCC4)C=CC2=C3c2ccc(NC(=O)CCl)cc2)nn1", "note": "(stereo not drawn) [MKCA215-3]", "λmax Absorp. (nm)": 463}
{"smiles": "O=C(CCl)Nc1ccc(C2=C3C=CC(N4CCCC4)=[N+]3[B-](F)(F)n3c2ccc3-n2cc(C3CC3)nn2)cc1", "note": "[MKCA215-4]", "λmax Absorp. (nm)": 462}
{"smiles": "O=C(CCl)Nc1ccc(C2=C3C=CC(N4CCCC4)=[N+]3[B-](F)(F)n3c2ccc3-n2cc(C3CCCC3)nn2)cc1", "note": "[MKCA215-5]", "λmax Absorp. (nm)": 463}
{"smiles": "O=C(CCl)Nc1ccc(C2=C3C=CC(N4CCCC4)=[N+]3[B-](F)(F)n3c2ccc3-n2cc(CC3CCCCC3)nn2)cc1", "note": "[MKCA215-8]", "λmax Absorp. (nm)": 463}
{"smiles": "CN(Cc1ccccc1)Cc1cn(-c2ccc3n2[B-](F)(F)[N+]2=C(N4CCCC4)C=CC2=C3c2ccc(NC(=O)CCl)cc2)nn1", "note": "[MKCA215-18]", "λmax Absorp. (nm)": 461}
{"smiles": "O=C(CCl)Nc1ccc(C2=C3C=CC(N4CCCC4)=[N+]3[B-](F)(F)n3c2ccc3-n2cc(CCc3ccccc3)nn2)cc1", "note": "[MKCA215-19]", "λmax Absorp. (nm)": 463}
{"smiles": "CC(C)Cc1cn(-c2ccc3n2[B-](F)(F)[N+]2=C(N4CCCC4)C=CC2=C3c2ccc(NC(=O)CCl)cc2)nn1", "note": "[MKCA215-43]", "λmax Absorp. (nm)": 461}
{"smiles": "CCCc1cn(-c2ccc3n2[B-](F)(F)[N+]2=C(N4CCCC4)C=CC2=C3c2ccc(NC(=O)CCl)cc2)nn1", "note": "[MKCA215-48]", "λmax Absorp. (nm)": 462}
{"smiles": "CCCCCC(O)c1cn(-c2ccc3n2[B-](F)(F)[N+]2=C(N4CCCC4)C=CC2=C3c2ccc(NC(=O)CCl)cc2)nn1", "note": "(stereo not drawn) [MKCA215-69]", "λmax Absorp. (nm)": 462}
{"smiles": "O=C(CCl)Nc1ccc(C2=C3C=CC(N4CCCC4)=[N+]3[B-](F)(F)n3c2ccc3-n2cc(CO)nn2)cc1", "note": "[MKCA215-70]", "λmax Absorp. (nm)": 459}
{"smiles": "CCCC(C)c1cn(-c2ccc3n2[B-](F)(F)[N+]2=C(NCc4cc(F)cc(F)c4)C=CC2=C3c2ccc(NC(=O)CCl)cc2)nn1", "note": "(stereo not drawn) [MKCA412-3]", "λmax Absorp. (nm)": 467}
{"smiles": "O=C(CCl)Nc1ccc(C2=C3C=CC(NCc4cc(F)cc(F)c4)=[N+]3[B-](F)(F)n3c2ccc3-n2cc(C3CC3)nn2)cc1", "note": "[MKCA412-4]", "λmax Absorp. (nm)": 467}
{"smiles": "O=C(CCl)Nc1ccc(C2=C3C=CC(NCc4cc(F)cc(F)c4)=[N+]3[B-](F)(F)n3c2ccc3-n2cc(C3CCCC3)nn2)cc1", "note": "[MKCA412-5]", "λmax Absorp. (nm)": 468}
{"smiles": "O=C(CCl)Nc1ccc(C2=C3C=CC(NCc4cc(F)cc(F)c4)=[N+]3[B-](F)(F)n3c2ccc3-n2cc(CC3CCCCC3)nn2)cc1", "note": "[MKCA412-8]", "λmax Absorp. (nm)": 467}
{"smiles": "CN(Cc1ccccc1)Cc1cn(-c2ccc3n2[B-](F)(F)[N+]2=C(NCc4cc(F)cc(F)c4)C=CC2=C3c2ccc(NC(=O)CCl)cc2)nn1", "note": "[MKCA412-18]", "λmax Absorp. (nm)": 463}
{"smiles": "O=C(CCl)Nc1ccc(C2=C3C=CC(NCc4cc(F)cc(F)c4)=[N+]3[B-](F)(F)n3c2ccc3-n2cc(CCc3ccccc3)nn2)cc1", "note": "[MKCA412-19]", "λmax Absorp. (nm)": 466}
{"test": "Absorbance and fluorescence emission spectra (SpectraMax M2)", "type": "physicochemical", "conditions": "MKCA compound library; fluorescence emission maximum", "how_it_was_run": "as §1", "units": {"λmax Emission (nm)": "nm"}}
{"smiles": "CN(Cc1ccccc1)C1=[N+]2C(=C(c3ccc(NC(=O)CCl)cc3)c3ccc(-n4cc(CO)nn4)n3[B-]2(F)F)C=C1", "note": "[MKCA195-70]", "λmax Emission (nm)": 581}
{"smiles": "CCCC(C)c1cn(-c2ccc3n2[B-](F)(F)[N+]2=C(N4CCCC4)C=CC2=C3c2ccc(NC(=O)CCl)cc2)nn1", "note": "(stereo not drawn) [MKCA215-3]", "λmax Emission (nm)": 569}
{"smiles": "O=C(CCl)Nc1ccc(C2=C3C=CC(N4CCCC4)=[N+]3[B-](F)(F)n3c2ccc3-n2cc(C3CC3)nn2)cc1", "note": "[MKCA215-4]", "λmax Emission (nm)": 570}
{"smiles": "O=C(CCl)Nc1ccc(C2=C3C=CC(N4CCCC4)=[N+]3[B-](F)(F)n3c2ccc3-n2cc(C3CCCC3)nn2)cc1", "note": "[MKCA215-5]", "λmax Emission (nm)": 574}
{"smiles": "O=C(CCl)Nc1ccc(C2=C3C=CC(N4CCCC4)=[N+]3[B-](F)(F)n3c2ccc3-n2cc(CC3CCCCC3)nn2)cc1", "note": "[MKCA215-8]", "λmax Emission (nm)": 564}
{"smiles": "CN(Cc1ccccc1)Cc1cn(-c2ccc3n2[B-](F)(F)[N+]2=C(N4CCCC4)C=CC2=C3c2ccc(NC(=O)CCl)cc2)nn1", "note": "[MKCA215-18]", "λmax Emission (nm)": 577}
{"smiles": "O=C(CCl)Nc1ccc(C2=C3C=CC(N4CCCC4)=[N+]3[B-](F)(F)n3c2ccc3-n2cc(CCc3ccccc3)nn2)cc1", "note": "[MKCA215-19]", "λmax Emission (nm)": 573}
{"smiles": "CC(C)Cc1cn(-c2ccc3n2[B-](F)(F)[N+]2=C(N4CCCC4)C=CC2=C3c2ccc(NC(=O)CCl)cc2)nn1", "note": "[MKCA215-43]", "λmax Emission (nm)": 570}
{"smiles": "CCCc1cn(-c2ccc3n2[B-](F)(F)[N+]2=C(N4CCCC4)C=CC2=C3c2ccc(NC(=O)CCl)cc2)nn1", "note": "[MKCA215-48]", "λmax Emission (nm)": 565}
{"smiles": "CCCCCC(O)c1cn(-c2ccc3n2[B-](F)(F)[N+]2=C(N4CCCC4)C=CC2=C3c2ccc(NC(=O)CCl)cc2)nn1", "note": "(stereo not drawn) [MKCA215-69]", "λmax Emission (nm)": 569}
{"smiles": "O=C(CCl)Nc1ccc(C2=C3C=CC(N4CCCC4)=[N+]3[B-](F)(F)n3c2ccc3-n2cc(CO)nn2)cc1", "note": "[MKCA215-70]", "λmax Emission (nm)": 568}
{"smiles": "CCCC(C)c1cn(-c2ccc3n2[B-](F)(F)[N+]2=C(NCc4cc(F)cc(F)c4)C=CC2=C3c2ccc(NC(=O)CCl)cc2)nn1", "note": "(stereo not drawn) [MKCA412-3]", "λmax Emission (nm)": 563}
{"smiles": "O=C(CCl)Nc1ccc(C2=C3C=CC(NCc4cc(F)cc(F)c4)=[N+]3[B-](F)(F)n3c2ccc3-n2cc(C3CC3)nn2)cc1", "note": "[MKCA412-4]", "λmax Emission (nm)": 563}
{"smiles": "O=C(CCl)Nc1ccc(C2=C3C=CC(NCc4cc(F)cc(F)c4)=[N+]3[B-](F)(F)n3c2ccc3-n2cc(C3CCCC3)nn2)cc1", "note": "[MKCA412-5]", "λmax Emission (nm)": 563}
{"smiles": "O=C(CCl)Nc1ccc(C2=C3C=CC(NCc4cc(F)cc(F)c4)=[N+]3[B-](F)(F)n3c2ccc3-n2cc(CC3CCCCC3)nn2)cc1", "note": "[MKCA412-8]", "λmax Emission (nm)": 564}
{"smiles": "CN(Cc1ccccc1)Cc1cn(-c2ccc3n2[B-](F)(F)[N+]2=C(NCc4cc(F)cc(F)c4)C=CC2=C3c2ccc(NC(=O)CCl)cc2)nn1", "note": "[MKCA412-18]", "λmax Emission (nm)": 560}
{"smiles": "O=C(CCl)Nc1ccc(C2=C3C=CC(NCc4cc(F)cc(F)c4)=[N+]3[B-](F)(F)n3c2ccc3-n2cc(CCc3ccccc3)nn2)cc1", "note": "[MKCA412-19]", "λmax Emission (nm)": 563}
{"test": "Quantum yield measurements versus Acridine Yellow in EtOH", "type": "physicochemical", "conditions": "MKCA compound library; quantum yield", "how_it_was_run": "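Emission areas integrated over 510–700 nm were compared with Acridine Yellow in ethanol (Φ=0.47), all excited at 460 nm. The comparative equation was normalized to excitation-wavelength absorbance and solvent refractive index.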", "units": {"φ (%)": "%"}}
{"smiles": "CN(Cc1ccccc1)C1=[N+]2C(=C(c3ccc(NC(=O)CCl)cc3)c3ccc(-n4cc(CO)nn4)n3[B-]2(F)F)C=C1", "note": "[MKCA195-70]", "φ (%)": 2.58}
{"smiles": "CCCC(C)c1cn(-c2ccc3n2[B-](F)(F)[N+]2=C(N4CCCC4)C=CC2=C3c2ccc(NC(=O)CCl)cc2)nn1", "note": "(stereo not drawn) [MKCA215-3]", "φ (%)": 3.99}
{"smiles": "O=C(CCl)Nc1ccc(C2=C3C=CC(N4CCCC4)=[N+]3[B-](F)(F)n3c2ccc3-n2cc(C3CC3)nn2)cc1", "note": "[MKCA215-4]", "φ (%)": 3.35}
{"smiles": "O=C(CCl)Nc1ccc(C2=C3C=CC(N4CCCC4)=[N+]3[B-](F)(F)n3c2ccc3-n2cc(C3CCCC3)nn2)cc1", "note": "[MKCA215-5]", "φ (%)": 1.94}
{"smiles": "O=C(CCl)Nc1ccc(C2=C3C=CC(N4CCCC4)=[N+]3[B-](F)(F)n3c2ccc3-n2cc(CC3CCCCC3)nn2)cc1", "note": "[MKCA215-8]", "φ (%)": 2.66}
{"smiles": "CN(Cc1ccccc1)Cc1cn(-c2ccc3n2[B-](F)(F)[N+]2=C(N4CCCC4)C=CC2=C3c2ccc(NC(=O)CCl)cc2)nn1", "note": "[MKCA215-18]", "φ (%)": 2.62}
{"smiles": "O=C(CCl)Nc1ccc(C2=C3C=CC(N4CCCC4)=[N+]3[B-](F)(F)n3c2ccc3-n2cc(CCc3ccccc3)nn2)cc1", "note": "[MKCA215-19]", "φ (%)": 4.98}
{"smiles": "CC(C)Cc1cn(-c2ccc3n2[B-](F)(F)[N+]2=C(N4CCCC4)C=CC2=C3c2ccc(NC(=O)CCl)cc2)nn1", "note": "[MKCA215-43]", "φ (%)": 4.04}
{"smiles": "CCCc1cn(-c2ccc3n2[B-](F)(F)[N+]2=C(N4CCCC4)C=CC2=C3c2ccc(NC(=O)CCl)cc2)nn1", "note": "[MKCA215-48]", "φ (%)": 4.60}
{"smiles": "CCCCCC(O)c1cn(-c2ccc3n2[B-](F)(F)[N+]2=C(N4CCCC4)C=CC2=C3c2ccc(NC(=O)CCl)cc2)nn1", "note": "(stereo not drawn) [MKCA215-69]", "φ (%)": 3.42}
{"smiles": "O=C(CCl)Nc1ccc(C2=C3C=CC(N4CCCC4)=[N+]3[B-](F)(F)n3c2ccc3-n2cc(CO)nn2)cc1", "note": "[MKCA215-70]", "φ (%)": 1.97}
{"smiles": "CCCC(C)c1cn(-c2ccc3n2[B-](F)(F)[N+]2=C(NCc4cc(F)cc(F)c4)C=CC2=C3c2ccc(NC(=O)CCl)cc2)nn1", "note": "(stereo not drawn) [MKCA412-3]", "φ (%)": 41.81}
{"smiles": "O=C(CCl)Nc1ccc(C2=C3C=CC(NCc4cc(F)cc(F)c4)=[N+]3[B-](F)(F)n3c2ccc3-n2cc(C3CC3)nn2)cc1", "note": "[MKCA412-4]", "φ (%)": 36.25}
{"smiles": "O=C(CCl)Nc1ccc(C2=C3C=CC(NCc4cc(F)cc(F)c4)=[N+]3[B-](F)(F)n3c2ccc3-n2cc(C3CCCC3)nn2)cc1", "note": "[MKCA412-5]", "φ (%)": 41.21}
{"smiles": "O=C(CCl)Nc1ccc(C2=C3C=CC(NCc4cc(F)cc(F)c4)=[N+]3[B-](F)(F)n3c2ccc3-n2cc(CC3CCCCC3)nn2)cc1", "note": "[MKCA412-8]", "φ (%)": 36.92}
{"smiles": "CN(Cc1ccccc1)Cc1cn(-c2ccc3n2[B-](F)(F)[N+]2=C(NCc4cc(F)cc(F)c4)C=CC2=C3c2ccc(NC(=O)CCl)cc2)nn1", "note": "[MKCA412-18]", "φ (%)": 26.25}
{"smiles": "O=C(CCl)Nc1ccc(C2=C3C=CC(NCc4cc(F)cc(F)c4)=[N+]3[B-](F)(F)n3c2ccc3-n2cc(CCc3ccccc3)nn2)cc1", "note": "[MKCA412-19]", "φ (%)": 42.58}
